Drawing on ChEMBL document CHEMBL3877313, “3,4-Dihydropyrimidinone-coumarin analogues as a new class of selective agent against S. aureus: Synthesis, biological evaluation and molecular modelling study” (2017), this text covers inhibition and MIC for twelve compounds.

The structures appear in SMILES notation. ≈ marks a conversion by molar mass, not a printed value. Where only a bound is given, the exact number is not on record here.

Assay [1] has as its target 72 kDa type IV collagenase (Homo sapiens) (UniProt P08253). Briefly: Inhibition of MMP2 in inflamed tissue isolated from chronic periodontitis patient at 500 ug/l after 15 to 30 mins by gelatin zymographic method relative to control.
A further assay has as its system Staphylococcus aureus. Briefly: Antibacterial activity against Staphylococcus aureus ATCC 12598 after 24 hrs by broth microdilution method. The format is functional. Conditions: ATCC 12598, 24 h. For orientation: Dilution methods test growth across graded concentrations, often in twofold steps.
For another assay, the system named is Bacillus subtilis. Briefly: Antibacterial activity against Bacillus subtilis ATCC 23857 after 24 hrs by broth microdilution method. Format: functional. The conditions noted are these: ATCC 23857, 24 h.
The next assay relates to Escherichia coli. Briefly: Antibacterial activity against Escherichia coli ATCC 25922 after 24 hrs by broth microdilution method. Conditions: ATCC 25922, 24 h. The format is functional.
The test system of the next assay is Pseudomonas aeruginosa. Briefly: Antibacterial activity against Pseudomonas aeruginosa ATCC 25619 after 24 hrs by broth microdilution method. Format: functional. Conditions: ATCC 25619, 24 h.
Assay [2] concerns the target Matrix metalloproteinase-9 (Homo sapiens) (UniProt P14780). Nature of the assay: Inhibition of MMP9 in inflamed tissue isolated from chronic periodontitis patient at 500 ug/l after 15 to 30 mins by gelatin zymographic method relative to control.

Sequence of Matrix metalloproteinase-9 (Homo sapiens) (P14780 whole entry): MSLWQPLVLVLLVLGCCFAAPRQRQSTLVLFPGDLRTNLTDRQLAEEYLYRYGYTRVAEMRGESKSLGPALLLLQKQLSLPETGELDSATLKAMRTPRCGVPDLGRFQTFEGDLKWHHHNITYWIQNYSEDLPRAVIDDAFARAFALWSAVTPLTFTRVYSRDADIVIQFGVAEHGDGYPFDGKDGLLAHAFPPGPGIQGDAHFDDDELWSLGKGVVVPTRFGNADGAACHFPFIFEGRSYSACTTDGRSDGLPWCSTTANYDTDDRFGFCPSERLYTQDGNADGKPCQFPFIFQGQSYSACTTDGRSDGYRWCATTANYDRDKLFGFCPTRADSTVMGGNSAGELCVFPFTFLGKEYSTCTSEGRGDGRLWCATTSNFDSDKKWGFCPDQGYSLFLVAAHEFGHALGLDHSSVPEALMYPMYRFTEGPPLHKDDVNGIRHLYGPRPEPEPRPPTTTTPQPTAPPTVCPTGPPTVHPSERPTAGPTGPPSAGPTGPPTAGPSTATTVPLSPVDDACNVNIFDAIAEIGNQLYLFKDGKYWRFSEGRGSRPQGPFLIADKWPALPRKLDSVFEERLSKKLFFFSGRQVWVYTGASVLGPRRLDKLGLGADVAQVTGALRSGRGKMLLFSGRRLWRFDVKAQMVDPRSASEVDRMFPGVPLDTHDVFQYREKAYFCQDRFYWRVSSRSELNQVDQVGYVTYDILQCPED
Sequence of 72 kDa type IV collagenase (Homo sapiens) (P08253 110-660 limits assumed): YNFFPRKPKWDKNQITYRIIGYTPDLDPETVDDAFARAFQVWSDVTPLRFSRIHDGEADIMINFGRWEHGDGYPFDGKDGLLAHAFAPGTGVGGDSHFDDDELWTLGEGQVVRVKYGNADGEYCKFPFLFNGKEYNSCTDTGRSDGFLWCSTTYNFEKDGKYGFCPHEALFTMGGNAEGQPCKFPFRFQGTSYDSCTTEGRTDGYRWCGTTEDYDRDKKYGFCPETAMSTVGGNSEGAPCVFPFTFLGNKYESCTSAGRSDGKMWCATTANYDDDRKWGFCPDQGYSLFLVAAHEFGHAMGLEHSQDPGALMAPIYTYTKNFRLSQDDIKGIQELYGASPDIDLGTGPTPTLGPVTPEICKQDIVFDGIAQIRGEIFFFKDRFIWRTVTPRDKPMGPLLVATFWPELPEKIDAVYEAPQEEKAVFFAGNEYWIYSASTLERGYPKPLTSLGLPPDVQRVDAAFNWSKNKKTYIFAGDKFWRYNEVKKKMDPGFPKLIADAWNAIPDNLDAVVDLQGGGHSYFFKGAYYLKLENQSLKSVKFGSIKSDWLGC

One may read the inhibition as the percentage by which the read-out fell short of the control. The low end stands for little suppression, the high end for strong suppression. The MIC is the lowest concentration that inhibits growth of the organism. A high value points to a need for much substance. As to `CCOC(=O)C1=C(C)NC(=S)NC1c1cc(=O)oc2ccc(Cl)cc12` (configuration not stated), the inhibition in assay [1] came out at 85%. In addition, the MIC in the assay with Staphylococcus aureus was 0.8 µg/mL (≈ 2.11 µM); in the assay with Bacillus subtilis, 50 µg/mL (≈ 132 µM); in the assay on Escherichia coli, 0.4 µg/mL (≈ 1.06 µM); against Pseudomonas aeruginosa it was 100 µg/mL (≈ 264 µM).
For `CCOC(=O)C1=C(C)NC(=O)NC1c1cc(=O)oc2cc(C)ccc12` (configuration not stated), the inhibition in assay [1] was 95%; in assay [2], 70%. Further, the MIC was determined as 0.2 µg/mL (≈ 0.584 µM) in the assay with Staphylococcus aureus, 50 µg/mL (≈ 146 µM) with Bacillus subtilis, 12.5 µg/mL (≈ 36.5 µM) in the assay on Escherichia coli and 100 µg/mL (≈ 292 µM) against Pseudomonas aeruginosa.
As to `CCOC(=O)C1=C(C)NC(=O)NC1c1cc(=O)oc2c1ccc1ccccc12` (configuration not stated), the inhibition in assay [1] came out at 96%; in assay [2], 90%. Also, the MIC in the assay on Staphylococcus aureus came out at 0.4 µg/mL (≈ 1.06 µM); in the assay on Bacillus subtilis, 100 µg/mL (≈ 264 µM); against Escherichia coli it was 25 µg/mL (≈ 66.1 µM); against Pseudomonas aeruginosa it was 25 µg/mL (≈ 66.1 µM).
In the case of `CCOC(=O)C1=C(C)NC(=S)NC1c1cc(=O)oc2c1ccc1ccccc12` (configuration not stated), the inhibition in assay [1] was 90%; in assay [2], 95%. The MIC with Staphylococcus aureus came out at 0.4 µg/mL (≈ 1.01 µM); in the assay with Bacillus subtilis, 100 µg/mL (≈ 254 µM); with Escherichia coli, 0.4 µg/mL (≈ 1.01 µM); against Pseudomonas aeruginosa, 100 µg/mL (≈ 254 µM).
`CCOC(=O)C1=C(C)NC(=S)NC1c1cc(=O)oc2ccc(C)cc12` (configuration not stated) registered an inhibition in assay [1] of 82%. Besides, the MIC in the assay with Staphylococcus aureus came to 0.4 µg/mL (≈ 1.12 µM); against Bacillus subtilis it was 100 µg/mL (≈ 279 µM); against Escherichia coli, 1.6 µg/mL (≈ 4.46 µM); in the assay with Pseudomonas aeruginosa, 100 µg/mL (≈ 279 µM).
For `CCOC(=O)C1=C(C)NC(=O)NC1c1cc(=O)oc2ccc(Cl)cc12` (configuration not stated), in assay [1], the inhibition turned out to be 85%. Also, the MIC came to 3.12 µg/mL (≈ 8.6 µM) in the assay on Staphylococcus aureus, 100 µg/mL (≈ 276 µM) against Bacillus subtilis, 25 µg/mL (≈ 68.9 µM) with Escherichia coli and 50 µg/mL (≈ 138 µM) in the assay with Pseudomonas aeruginosa.
On to `CN(C)[C@@H]1C(O)=C(C(N)=O)C(=O)[C@@]2(O)C(O)=C3C(=O)c4c(O)cccc4[C@@](C)(O)[C@H]3C[C@@H]12`, for which the inhibition in assay [1] and in assay [2] was 100% throughout.
`CCOC(=O)C1=C(C)NC(=O)NC1c1cc(=O)oc2ccc(OC)cc12` (configuration not stated): the inhibition in assay [1] came out at 95%; in assay [2], 85%. The MIC against Staphylococcus aureus is 0.8 µg/mL (≈ 2.23 µM); in the assay with Bacillus subtilis it was 100 µg/mL (≈ 279 µM); against Escherichia coli, 50 µg/mL (≈ 140 µM); with Pseudomonas aeruginosa it was 25 µg/mL (≈ 69.8 µM).
Regarding `O=C(O)c1cn(C2CC2)c2cc(N3CCNCC3)c(F)cc2c1=O` [CIPROFLOXACIN], the MIC in the assay with Staphylococcus aureus is 2 µg/mL (≈ 6.04 µM); in the assay with Bacillus subtilis, 2 µg/mL (≈ 6.04 µM); with Pseudomonas aeruginosa, below 4 µg/mL.
Take `CCOC(=O)C1=C(C)NC(=S)NC1c1cc(=O)oc2ccc(OC)cc12` (configuration not stated): the inhibition stood at 87% in assay [1] and 10% in assay [2]. Also, the MIC amounted to 0.8 µg/mL (≈ 2.14 µM) against Staphylococcus aureus, 50 µg/mL (≈ 134 µM) in the assay on Bacillus subtilis, 25 µg/mL (≈ 66.8 µM) in the assay with Escherichia coli and 100 µg/mL (≈ 267 µM) in the assay with Pseudomonas aeruginosa.
Turning to `CCOC(=O)C1=C(C)NC(=O)NC1c1cc(=O)oc2ccc(C)cc12` (configuration not stated), the inhibition in assay [1] was found to be 90%; in assay [2], 80%. Besides, the MIC is 0.4 µg/mL (≈ 1.17 µM) against Staphylococcus aureus, 12.5 µg/mL (≈ 36.5 µM) in the assay with Bacillus subtilis, 50 µg/mL (≈ 146 µM) against Escherichia coli and 100 µg/mL (≈ 292 µM) in the assay on Pseudomonas aeruginosa.
`CCOC(=O)C1=C(C)NC(=S)NC1c1cc(=O)oc2cc(C)ccc12` (configuration not stated): the inhibition is 80% in assay [1] and 30% in assay [2]. The MIC in the assay on Staphylococcus aureus worked out at 6.25 µg/mL (≈ 17.4 µM); in the assay with Bacillus subtilis it was 50 µg/mL (≈ 140 µM); with Escherichia coli it was 25 µg/mL (≈ 69.8 µM); against Pseudomonas aeruginosa, 100 µg/mL (≈ 279 µM).
